Among the data in paper PMC6842385, “Identifying new topoisomerase II poison scaffolds by combining publicly available toxicity data and 2D/3D-based virtual screening” (Journal of Cheminformatics, 2019) are IC50 values, retold here.

The term IC50 denotes the concentration at which inhibition is half-maximal. Higher therefore signals lower potency.

The assay relates to T1, Top2.
T1 construct: gene TOP2A; Top2 used in TopoGEN decatenation assay
Put plainly: kDNA decatenation assay, agarose gel. It counts as biochemical. The note with it: kinetoplast DNA 0.2 μg in 20 μl, 5 mM ATP, 10 mM MgCl2, 150 mM NaCl, pH 8.0, 37 °C, 30 min. The source says:
kDNA decatenation assay, agarose gel on Top2

For the compound `CCN(CC)CCNc1ccc(C)c2sc3ccc(O)cc3c(=O)c12` [compound 317921, NSC317921], the 50% inhibitory concentration (IC50) came to 7.5 µM.
Same read-out and setting: the result for `COc1cccc2c(N)c3cccc(C(=O)NCCN(C)C)c3nc12` [compound 691240, NSC691240] reads 12.1 µM.
Compound `O=C1c2c(O)ccc(O)c2C(=O)c2c(NCCNCCO)ccc(NCCNCCO)c21` [compound 301739, mitoxantrone] registered an IC50 (positive control) of 3.3 µM.
`CCN(CC)CCNc1ccc2nc(C)n3c4ccc(O)cc4c(=O)c1c23` [compound 637992, NSC637992] returned a concentration for half-maximal inhibition (IC50) of 3.3 µM.
For the compound `CCN(CC)CCNc1ccc2ncn3c4c(OC)ccc(OC)c4c(=O)c1c23` [compound 660839, NSC660839], the IC50 is above 100 µM.
